Assay results: ChEMBL document CHEMBL5223177, “Pyrazole Ureas as Low Dose, CNS Penetrant Glucosylceramide Synthase Inhibitors for the Treatment of Parkinson's Disease” (ACS Med Chem Lett, 2023)
Changes are numbered by the printed parent chain. Converted amounts (≈) assume the structure as drawn. The source made the active and inactive calls. No cut-off for these calls is given here.

Key:
[1] = molecular target: T1, Ceramide glucosyltransferase (Homo sapiens, UniProt Q16739); test: Inhibition of GCS in human fibroblast; format: cell-based
T1 sequence (Q16739 whole entry): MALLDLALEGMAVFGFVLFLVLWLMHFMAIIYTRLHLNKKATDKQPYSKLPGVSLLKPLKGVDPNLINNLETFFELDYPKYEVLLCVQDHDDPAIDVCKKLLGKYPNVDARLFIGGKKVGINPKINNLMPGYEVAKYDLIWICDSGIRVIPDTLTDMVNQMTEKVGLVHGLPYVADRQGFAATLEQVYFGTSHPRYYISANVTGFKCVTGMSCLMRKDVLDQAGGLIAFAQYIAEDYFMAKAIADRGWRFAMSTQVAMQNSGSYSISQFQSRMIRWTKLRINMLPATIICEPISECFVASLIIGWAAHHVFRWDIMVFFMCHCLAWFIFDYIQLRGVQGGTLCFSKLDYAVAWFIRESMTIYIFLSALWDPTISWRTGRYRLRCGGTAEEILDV

[2] = molecular target: T2, mouse BCRP (ABCG2) (Mus musculus, UniProt Q7TMS5); test: Substrate activity at mouse BCRP assessed as efflux ratio at 1 uM; format: ADME; conditions: not told
T2 sequence (Q7TMS5 whole entry): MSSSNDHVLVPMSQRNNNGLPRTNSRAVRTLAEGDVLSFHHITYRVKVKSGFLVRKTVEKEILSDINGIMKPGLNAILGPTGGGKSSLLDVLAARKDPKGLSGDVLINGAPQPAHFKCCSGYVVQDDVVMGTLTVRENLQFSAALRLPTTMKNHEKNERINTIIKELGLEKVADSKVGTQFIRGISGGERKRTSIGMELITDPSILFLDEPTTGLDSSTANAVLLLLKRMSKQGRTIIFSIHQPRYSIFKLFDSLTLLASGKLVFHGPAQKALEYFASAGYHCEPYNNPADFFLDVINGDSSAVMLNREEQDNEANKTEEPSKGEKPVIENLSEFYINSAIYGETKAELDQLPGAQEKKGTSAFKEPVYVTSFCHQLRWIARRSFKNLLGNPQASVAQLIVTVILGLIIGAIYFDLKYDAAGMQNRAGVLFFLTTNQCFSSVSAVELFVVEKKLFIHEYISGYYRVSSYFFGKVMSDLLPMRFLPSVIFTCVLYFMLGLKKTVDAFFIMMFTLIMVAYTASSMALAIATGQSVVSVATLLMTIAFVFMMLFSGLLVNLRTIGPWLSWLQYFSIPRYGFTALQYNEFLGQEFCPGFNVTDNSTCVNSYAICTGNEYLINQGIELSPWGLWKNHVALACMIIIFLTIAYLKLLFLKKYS

[3] = molecular target: T3, 5-hydroxytryptamine receptor 3A (Homo sapiens, UniProt P46098); test: Antagonist activity at human 5HT3A expressed in HEK293 cells incubated for 1 hr by FLIPR assay; format: cell-based
T3 sequence (P46098 whole entry): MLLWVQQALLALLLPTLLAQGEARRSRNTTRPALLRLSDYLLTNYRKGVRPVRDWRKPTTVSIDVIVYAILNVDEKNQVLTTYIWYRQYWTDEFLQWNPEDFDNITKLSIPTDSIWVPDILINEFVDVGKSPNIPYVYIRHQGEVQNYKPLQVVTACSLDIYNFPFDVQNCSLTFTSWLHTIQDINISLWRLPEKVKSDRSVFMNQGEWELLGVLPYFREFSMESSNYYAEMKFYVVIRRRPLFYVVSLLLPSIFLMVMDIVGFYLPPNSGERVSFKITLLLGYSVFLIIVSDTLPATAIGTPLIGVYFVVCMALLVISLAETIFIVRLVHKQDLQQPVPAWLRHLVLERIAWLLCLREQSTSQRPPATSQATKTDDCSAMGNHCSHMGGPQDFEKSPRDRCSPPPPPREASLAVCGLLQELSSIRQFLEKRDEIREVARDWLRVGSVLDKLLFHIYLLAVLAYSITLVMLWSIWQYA

[4] = molecular target: T4, Ceramide glucosyltransferase (Mus musculus, UniProt O88693); test: Inhibition of GCS in mouse fibroblast; format: cell-based
T4 sequence (O88693 whole entry): T1 sequence (Q16739 whole entry) with L8Q, V13L, L20V, A29S, G131A, Y196S, A251S

[5] = Unbound fraction in dog plasma; format: ADME, cell-free, Canis lupus familiaris
[6] = Solubility of compound at pH 2 by HPLC method; format: physicochemical; conditions: buffer
[7] = molecular target: Cytochrome P450 2C9 (Homo sapiens, UniProt P11712); test: Inhibition of CYP2C9 (unknown origin); format: ADME
[8] = Intrinsic clearance in rat; format: ADME
[9] = Half life in dog; format: ADME, Canis lupus familiaris; conditions: in vivo
[10] = Protection against PFFs induced alpha-synuclein aggregation in human iPSC derived neurons assessed as reduction in phosphorylated S129 alpha-synuclein level at 1000 nM pretreated for 1 day followed by PFFs stimulation and measured after 14 days by immunocytochemistry analysis; format: functional, Neuron; set-up: scale not given: the % may be the effect or the level left; conditions: time 15 day
[11] = system: Neuron; test: Protection against PFFs induced lysosomal impairment in human iPSC derived neurons assessed as increase in lysosomal hydrolysis pretreated for 1 day followed by PFFs stimulation and measured after 14 days by immunocytochemistry analysis; format: functional, cell-based; conditions: time 15.0 day
[12] = molecular target: T5, Ceramide glucosyltransferase (Homo sapiens) (UniProt Q16739); test: (§1) Inhibition of GCS in human iPSC derived neurons assessed as reduction in […] GlcCer levels; format: cell-based; conditions: Neuron
T5 sequence (whole entry): T1 sequence (Q16739 whole entry)

[13] = molecular target: T1, Ceramide glucosyltransferase; test: as §1; format: cell-based, Neuron
[14] = Protection against PFFs induced alpha-synuclein aggregation in human iPSC derived neurons assessed as reduction in phosphorylated S129 alpha-synuclein level pretreated for 1 day followed by PFFs stimulation and measured after 14 days by immunocytochemistry analysis; format: functional, cell-based; conditions: Neuron
[15] = molecular target: T6, Ceramide glucosyltransferase (Mus musculus) (UniProt O88693); test: In vivo inhibition of GCS in C57 mouse assessed as reduction in brain GlcCer d18:1/18:0 concentration at 30 to 100 mg/kg, po measured after 8 hrs by LC-MS/MS method; format: functional, organism-based; conditions: dose 30-100 mg/kg
T6 sequence (whole entry): T1 sequence (Q16739 whole entry) with L8Q, V13L, L20V, A29S, G131A, Y196S, A251S

[16] = molecular target: T6, Ceramide glucosyltransferase (Mus musculus); test: (§2) In vivo inhibition of GCS in C57 mouse assessed as reduction in brain GlcCer d18:1/18:0 concentration measured after 8 hrs by LC-MS/MS method; format: functional
[17] = molecular target: T4, Ceramide glucosyltransferase; test: as §2; format: functional

Sequence of Cytochrome P450 2C9 (P11712 whole entry): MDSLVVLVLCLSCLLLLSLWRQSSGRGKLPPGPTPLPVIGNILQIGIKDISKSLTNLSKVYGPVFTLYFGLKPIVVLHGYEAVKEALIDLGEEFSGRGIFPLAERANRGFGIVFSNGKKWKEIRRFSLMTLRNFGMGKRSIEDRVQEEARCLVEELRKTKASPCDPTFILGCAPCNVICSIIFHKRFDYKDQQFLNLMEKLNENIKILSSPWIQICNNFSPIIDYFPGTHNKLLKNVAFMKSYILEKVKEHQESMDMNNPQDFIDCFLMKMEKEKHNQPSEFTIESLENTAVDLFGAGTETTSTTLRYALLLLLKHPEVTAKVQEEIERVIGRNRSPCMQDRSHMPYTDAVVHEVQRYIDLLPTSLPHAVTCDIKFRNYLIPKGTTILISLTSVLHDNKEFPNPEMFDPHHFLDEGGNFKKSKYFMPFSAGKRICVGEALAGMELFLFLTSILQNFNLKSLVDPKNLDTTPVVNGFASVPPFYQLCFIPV

| Compound | IC50 [1] | efflux ratio at 1 µM [2] | IC50 [3] | IC50 [4] | fraction unbound [5] | solubility [6] | IC50 [7] | CLint scaled [8] | half-life [9] | Activity [10] | Activity [11] | inhibition [12] | IC50 [13] | IC50 [14] | Activity [15] | Activity [16] | fEC50 [16] | EC50 [17] |
| --- | --- | --- | --- | --- | --- | --- | --- | --- | --- | --- | --- | --- | --- | --- | --- | --- | --- | --- |
| Cl.O=C(N1CCN2CCC1CC2)n1nc(-n2cc(C(F)(F)F)cn2)c2c1COCC2 | 0.032 µM | 1.3 | 1.97 µM | 0.017 µM | 0.27 | 174 µM | > 50 µM | 55 mL/min/kg | 8.2 h | 20% | Dose-Dependent Effect | Dose-Dependent Effect | 0.0017 µM | 0.017 µM | – | – | – | – |
| O=C(N1CCN2CCC1CC2)n1nc(-c2ccc(F)cc2)c2c1COCC2 | 0.034 µM | 1.4 | 0.224 µM | 0.021 µM | 0.3 | 167 µM (≈ 61.9 µg/mL) | > 50 µM | 90 mL/min/kg | 2.4 h | – | – | – | – | – | Active | Dose-Dependent Effect | 64 nM | 0.32 µM |
